Results: PubChem BioAssay AID1259407 (Chemical Carcinogenesis Research Information System (CCRIS), 2018)
Active and inactive are the calls of the source. The rule behind the calls is not given here.

Test system: CCRIS mutagenicity, Ames/micronucleus/aberration tests
Assay: CCRIS mutagenicity studies
[1] = Test System: AMES SALMONELLA TYPHIMURIUM, Strain/Indicator: TA98, Metabolic Activation: NONE, Method: STANDARD PLATE
[2] = Test System: AMES SALMONELLA TYPHIMURIUM, Strain/Indicator: TA100, Metabolic Activation: NONE, Method: STANDARD PLATE
[3] = Test System: AMES SALMONELLA TYPHIMURIUM, Strain/Indicator: TA98, Metabolic Activation: NONE, Method: PREINCUBATION
[4] = Test System: AMES SALMONELLA TYPHIMURIUM, Strain/Indicator: TA100, Metabolic Activation: NONE, Method: PREINCUBATION

COc1ccc2nc3cc(Cl)ccc3c(NCCCNCCCl)c2n1
mutagenic call [1]: active; positive | mutagenic call [2]: active; positive | mutagenic call (Test System: AMES SALMONELLA TYPHIMURIUM, Strain/Indicator: TA1535, Metabolic Activation: NONE, Method: STANDARD PLATE): inactive; negative | mutagenic call (Test System: AMES SALMONELLA TYPHIMURIUM, Strain/Indicator: TA1536, Metabolic Activation: NONE, Method: STANDARD PLATE): active; positive | mutagenic call (Test System: AMES SALMONELLA TYPHIMURIUM, Strain/Indicator: TA1537, Metabolic Activation: NONE, Method: STANDARD PLATE): active; positive | mutagenic call (Test System: AMES SALMONELLA TYPHIMURIUM, Strain/Indicator: TA1538, Metabolic Activation: NONE, Method: STANDARD PLATE): active; positive | mutagenic call (Test System: CHO/HGPRT, Strain/Indicator: CHO-K1-BH4, Metabolic Activation: NONE, Method: STANDARD PLATE): active; positive

Cc1cc(O)ccc1N
mutagenic call (Test System: MOUSE LYMPHOMA, Strain/Indicator: L5178Y (TK+/TK-), Metabolic Activation: NONE, Method: SUSPENSION/PLATE): active; positive. reevaluation of results: equivocal | mutagenic call (Test System: MOUSE LYMPHOMA, Strain/Indicator: L5178Y (TK+/TK-), Metabolic Activation: RAT, LIVER, S-9, AROCLOR 1254, Method: SUSPENSION/PLATE): inactive; negative. reevaluation of results: inconclusive

CC(=O)Nc1cccc2cccnc12
mutagenic call [3]: inactive; negative | mutagenic call (Test System: AMES SALMONELLA TYPHIMURIUM, Strain/Indicator: TA98, Metabolic Activation: RAT, LIVER, S-9, KANECHLOR 500, Method: PREINCUBATION): inactive; negative | mutagenic call [4]: inactive; negative | mutagenic call (Test System: AMES SALMONELLA TYPHIMURIUM, Strain/Indicator: TA100, Metabolic Activation: RAT, LIVER, S-9, KANECHLOR 500, Method: PREINCUBATION): active; positive | mutagenic call (Test System: AMES SALMONELLA TYPHIMURIUM, Strain/Indicator: TA100, Metabolic Activation: RAT, LIVER, S-9, PHENOBARBITAL AND 5,6-BENZOFLAVONE, Method: PREINCUBATION): active; positive | mutagenic call (Test System: AMES SALMONELLA TYPHIMURIUM, Strain/Indicator: TA100, Metabolic Activation: S-9, Method: PREINCUBATION): active; positive

O[C@H]1[C@H]2O[C@H]2c2c(c3ccccc3c3ccccc23)[C@@H]1O
mutagenic call (Test System: AMES SALMONELLA TYPHIMURIUM, Strain/Indicator: TA97, Metabolic Activation: NONE, Method: PREINCUBATION): active; positive | mutagenic call [3]: active; positive | mutagenic call [4]: active; positive | mutagenic call (Test System: AMES SALMONELLA TYPHIMURIUM, Strain/Indicator: TA104, Metabolic Activation: NONE, Method: PREINCUBATION): active; positive | mutagenic call (Test System: CHINESE HAMSTER V-79, Strain/Indicator: V-79/6-THIOGUANINE, Metabolic Activation: NONE): active; positive

CC(C)(S)[C@H](N)C(=O)O
mutagenic call (Test System: AMES SALMONELLA TYPHIMURIUM, Strain/Indicator: TA92, Metabolic Activation: NONE, Method: STANDARD PLATE): active; positive | mutagenic call (Test System: AMES SALMONELLA TYPHIMURIUM, Strain/Indicator: TA92, Metabolic Activation: RAT, KIDNEY, S-9, Method: STANDARD PLATE): active; positive | mutagenic call (Test System: AMES SALMONELLA TYPHIMURIUM, Strain/Indicator: TA92, Metabolic Activation: RAT, LIVER, S-9, Method: STANDARD PLATE): active; positive | mutagenic call [2]: active; positive | mutagenic call (Test System: AMES SALMONELLA TYPHIMURIUM, Strain/Indicator: TA100, Metabolic Activation: RAT, KIDNEY, S-9, Method: STANDARD PLATE): active; positive | mutagenic call (Test System: AMES SALMONELLA TYPHIMURIUM, Strain/Indicator: TA100, Metabolic Activation: RAT, LIVER, S-9, Method: STANDARD PLATE): active; positive | mutagenic call (Test System: AMES SALMONELLA TYPHIMURIUM, Strain/Indicator: TA102, Metabolic Activation: NONE, Method: STANDARD PLATE): active; positive

CC1=CC(C=O)C(C=O)=C[C@@H]2CC(C)(C)C[C@H]12 (stereo partly specified)
mutagenic call [1]: inactive; negative | mutagenic call [2]: inactive; negative | mutagenic call (Test System: AMES SALMONELLA TYPHIMURIUM, Strain/Indicator: TA2637, Metabolic Activation: NONE, Method: STANDARD PLATE): inactive; negative | mutagenic call (Test System: CHINESE HAMSTER V-79, Strain/Indicator: V-79/6-THIOGUANINE (HGPRT), Metabolic Activation: NONE): inactive; negative

N#CCBr
mutagenic call (Test System: AMES SALMONELLA TYPHIMURIUM, Strain/Indicator: TA98, Metabolic Activation: HAMSTER, LIVER, S-9, AROCLOR 1254 (10%), Method: PREINCUBATION): inactive; negative | mutagenic call [3]: inactive; negative | mutagenic call (Test System: AMES SALMONELLA TYPHIMURIUM, Strain/Indicator: TA98, Metabolic Activation: RAT, LIVER, S-9, AROCLOR 1254 (10%), Method: PREINCUBATION): inactive; negative | mutagenic call (Test System: AMES SALMONELLA TYPHIMURIUM, Strain/Indicator: TA100, Metabolic Activation: HAMSTER, LIVER, S-9, AROCLOR 1254 (10%), Method: PREINCUBATION): inactive; negative | mutagenic call (Test System: AMES SALMONELLA TYPHIMURIUM, Strain/Indicator: TA100, Metabolic Activation: NONE, Method: FLUCTUATION TEST): inactive; negative | mutagenic call [4]: inactive; negative | mutagenic call (Test System: AMES SALMONELLA TYPHIMURIUM, Strain/Indicator: TA100, Metabolic Activation: RAT, LIVER, S-9, AROCLOR 1254 (10%), Method: PREINCUBATION): inactive; negative | mutagenic call (Test System: AMES SALMONELLA TYPHIMURIUM, Strain/Indicator: TA100, Metabolic Activation: RAT, LIVER, S-9, AROCLOR 1254, Method: FLUCTUATION TEST): active; positive | mutagenic call (Test System: AMES SALMONELLA TYPHIMURIUM, Strain/Indicator: TA1535, Metabolic Activation: HAMSTER, LIVER, S-9, AROCLOR 1254 (10%), Method: PREINCUBATION): inactive; negative | mutagenic call (Test System: AMES SALMONELLA TYPHIMURIUM, Strain/Indicator: TA1535, Metabolic Activation: NONE, Method: PREINCUBATION): inactive; negative | mutagenic call (Test System: AMES SALMONELLA TYPHIMURIUM, Strain/Indicator: TA1535, Metabolic Activation: RAT, LIVER, S-9, AROCLOR 1254 (10%), Method: PREINCUBATION): inactive; negative | mutagenic call (Test System: AMES SALMONELLA TYPHIMURIUM, Strain/Indicator: TA1537, Metabolic Activation: HAMSTER, LIVER, S-9, AROCLOR 1254 (10%), Method: PREINCUBATION): inactive; negative | mutagenic call (Test System: AMES SALMONELLA TYPHIMURIUM, Strain/Indicator: TA1537, Metabolic Activation: NONE, Method: PREINCUBATION): inactive; negative | mutagenic call (Test System: AMES SALMONELLA TYPHIMURIUM, Strain/Indicator: TA1537, Metabolic Activation: RAT, LIVER, S-9, AROCLOR 1254 (10%), Method: PREINCUBATION): inactive; negative

CC(=O)OCC(=O)NCCCOc1cccc(CN2CCCCC2)c1
mutagenic call (Test System: AMES SALMONELLA TYPHIMURIUM, Strain/Indicator: TA98, Metabolic Activation: NONE): inactive; negative | mutagenic call (Test System: AMES SALMONELLA TYPHIMURIUM, Strain/Indicator: TA98, Metabolic Activation: RAT, LIVER, S-9, PHENOBARBITAL AND 5,6-BENZOFLAVONE): inactive; negative | mutagenic call (Test System: AMES SALMONELLA TYPHIMURIUM, Strain/Indicator: TA100, Metabolic Activation: NONE): inactive; negative | mutagenic call (Test System: AMES SALMONELLA TYPHIMURIUM, Strain/Indicator: TA100, Metabolic Activation: RAT, LIVER, S-9, PHENOBARBITAL AND 5,6-BENZOFLAVONE): inactive; negative | mutagenic call (Test System: AMES SALMONELLA TYPHIMURIUM, Strain/Indicator: TA1535, Metabolic Activation: NONE): inactive; negative | mutagenic call (Test System: AMES SALMONELLA TYPHIMURIUM, Strain/Indicator: TA1535, Metabolic Activation: RAT, LIVER, S-9, PHENOBARBITAL AND 5,6-BENZOFLAVONE): inactive; negative | mutagenic call (Test System: AMES SALMONELLA TYPHIMURIUM, Strain/Indicator: TA1537, Metabolic Activation: NONE): inactive; negative | mutagenic call (Test System: AMES SALMONELLA TYPHIMURIUM, Strain/Indicator: TA1537, Metabolic Activation: RAT, LIVER, S-9, PHENOBARBITAL AND 5,6-BENZOFLAVONE): inactive; negative | mutagenic call (Test System: AMES SALMONELLA TYPHIMURIUM, Strain/Indicator: TA1538, Metabolic Activation: NONE): inactive; negative | mutagenic call (Test System: AMES SALMONELLA TYPHIMURIUM, Strain/Indicator: TA1538, Metabolic Activation: RAT, LIVER, S-9, PHENOBARBITAL AND 5,6-BENZOFLAVONE): inactive; negative | mutagenic call (Test System: E. COLI, Strain/Indicator: WP2 UVRA, Metabolic Activation: NONE): inactive; negative | mutagenic call (Test System: E. COLI, Strain/Indicator: WP2 UVRA, Metabolic Activation: RAT, LIVER, S-9, PHENOBARBITAL AND 5,6-BENZOFLAVONE): inactive; negative

O=C1CCC(=O)N1c1ccc(Cl)c(Cl)c1
mutagenic call [1]: inactive; negative | mutagenic call (Test System: AMES SALMONELLA TYPHIMURIUM, Strain/Indicator: TA98, Metabolic Activation: RAT, LIVER, S-9, AROCLOR 1254, Method: STANDARD PLATE): inactive; negative | mutagenic call [2]: inactive; negative | mutagenic call (Test System: AMES SALMONELLA TYPHIMURIUM, Strain/Indicator: TA100, Metabolic Activation: RAT, LIVER, S-9, AROCLOR 1254, Method: STANDARD PLATE): inactive; negative
